Experimental data taken from patent US11179364B2, “Licofligozin for the treatment of non-alcoholic steatohepatitis” (NOVARTIS AG, priority 2017, dated 2021).
Where two headings read alike, the source gives them in different places.

How the values were obtained:
[1] = Dog pharmacokinetics, tablet vs solution, crossover; type: in vivo; conditions: single dose of 50 mg/dog, dogs
SGLT1 = biological target: T1, SGLT1 (Homo sapiens, UniProt P13866); experiment: SGLT1 inhibition; type: biochemical
T1 sequence (P13866 1-664): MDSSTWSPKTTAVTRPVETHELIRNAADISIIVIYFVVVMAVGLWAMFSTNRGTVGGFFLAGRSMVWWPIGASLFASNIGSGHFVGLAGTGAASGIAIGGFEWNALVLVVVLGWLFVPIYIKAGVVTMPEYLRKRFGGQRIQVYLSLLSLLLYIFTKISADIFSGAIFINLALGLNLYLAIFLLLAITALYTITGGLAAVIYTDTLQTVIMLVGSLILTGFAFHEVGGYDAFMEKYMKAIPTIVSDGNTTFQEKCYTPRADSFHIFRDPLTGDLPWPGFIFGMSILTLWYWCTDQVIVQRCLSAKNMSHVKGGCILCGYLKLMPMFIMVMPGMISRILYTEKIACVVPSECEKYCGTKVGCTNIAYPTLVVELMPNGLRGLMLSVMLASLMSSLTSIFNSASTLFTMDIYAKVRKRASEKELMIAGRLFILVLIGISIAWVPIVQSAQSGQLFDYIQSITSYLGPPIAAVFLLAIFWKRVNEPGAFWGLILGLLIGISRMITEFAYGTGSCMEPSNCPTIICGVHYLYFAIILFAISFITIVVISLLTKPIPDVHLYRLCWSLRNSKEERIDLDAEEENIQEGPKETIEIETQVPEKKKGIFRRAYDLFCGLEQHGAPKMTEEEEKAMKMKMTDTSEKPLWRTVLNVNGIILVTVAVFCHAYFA

[2] = 12 week study in obese patients; type: in vivo, human
[3] = Single and multiple dose studies in healthy volunteers and T2DM patients; type: in vivo, human
[4] = Oral toxicity studies in dogs; type: in vivo
[5] = Tissue distribution study in rats; type: in vivo
[6] = tested on: other glucose transporters (GLUTs); experiment: Selectivity against other glucose transporters; type: biochemical
[7] = Clinical pharmacokinetics; conditions: human, in vivo; read-out: pharmacokinetic elimination half-life
hERG = hERG (Homo sapiens, UniProt Q12809); experiment: hERG inhibitory activity; type: biochemical; conditions: at the maximal soluble concentration (16 μM)
[8] = Oral toxicity studies in rats
[9] = In vitro pharmacokinetic drug interaction studies; type: in vitro ADME
SGLT2 = biological target: T2, SGLT2 (Homo sapiens, UniProt P31639); experiment: SGLT2 inhibition; type: biochemical
T2 sequence (P31639 1-672): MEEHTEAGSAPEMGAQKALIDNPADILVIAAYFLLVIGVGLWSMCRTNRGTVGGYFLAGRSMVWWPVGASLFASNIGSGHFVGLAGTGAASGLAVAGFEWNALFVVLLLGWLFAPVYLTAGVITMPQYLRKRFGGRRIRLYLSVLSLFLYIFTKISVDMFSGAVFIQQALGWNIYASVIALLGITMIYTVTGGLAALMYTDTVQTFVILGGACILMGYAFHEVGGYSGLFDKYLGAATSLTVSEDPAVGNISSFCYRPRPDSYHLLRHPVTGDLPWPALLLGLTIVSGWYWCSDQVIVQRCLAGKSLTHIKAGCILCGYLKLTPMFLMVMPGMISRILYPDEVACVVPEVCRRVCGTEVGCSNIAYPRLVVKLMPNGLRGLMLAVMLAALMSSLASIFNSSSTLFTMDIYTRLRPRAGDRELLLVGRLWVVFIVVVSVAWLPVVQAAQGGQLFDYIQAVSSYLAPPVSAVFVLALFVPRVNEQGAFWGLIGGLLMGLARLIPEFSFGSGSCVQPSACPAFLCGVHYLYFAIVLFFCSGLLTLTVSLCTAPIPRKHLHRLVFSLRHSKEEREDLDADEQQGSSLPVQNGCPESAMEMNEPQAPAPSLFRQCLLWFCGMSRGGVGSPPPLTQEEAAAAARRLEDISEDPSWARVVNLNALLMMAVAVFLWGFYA

Permeability = type: in vitro ADME
human hepatocytes = experiment: Clearance pathways in human hepatocytes; type: in vitro ADME
Solubility = type: physicochemical
[10] = rat, in vivo
[11] = Dose/exposure-response analysis from completed clinical studies; type: in vivo, human
Description: The primary efficacy endpoint for dose/exposure-response analysis for LIK066, from previously completed clinical studies, was body weight loss, and other pharmacodynamic endpoints such as urinary and plasma glucose. The estimated ED50 and ED90 of LIK066 based on once a day dosing were approximately 5 mg and 50 mg, respectively, based on a body weight loss model. The estimated ED50 and ED90 based on other relevant pharmacodynamics endpoints such as urinary and plasma glucose were approximately 3-10 mg and 30-100 mg, respectively. […] Therefore this dose is tested first, with introduction of the 30 mg dose later to assure futility evaluation prior to enrollment of the entire cohort for the study. […] The diarrhea associated with LIK066 could be mitigated by dietary modification such as reduction in carbohydrate intake. Body weight loss is an important factor in therapeutic development for NASH as weight loss through either bariatric surgery or life style modification deters progression of the disease.

[12] = Excretion of [14C] LIK066-related radioactivity in rats; type: in vivo
P-glycoprotein (P-gp) = P-glycoprotein (P-gp) (Homo sapiens, UniProt P08183); experiment: P-glycoprotein substrate assessment; type: in vitro ADME
[13] = once a day dosing, body weight loss model
[14] = urinary and plasma glucose endpoints

Sequence of hERG (Q12809 whole entry): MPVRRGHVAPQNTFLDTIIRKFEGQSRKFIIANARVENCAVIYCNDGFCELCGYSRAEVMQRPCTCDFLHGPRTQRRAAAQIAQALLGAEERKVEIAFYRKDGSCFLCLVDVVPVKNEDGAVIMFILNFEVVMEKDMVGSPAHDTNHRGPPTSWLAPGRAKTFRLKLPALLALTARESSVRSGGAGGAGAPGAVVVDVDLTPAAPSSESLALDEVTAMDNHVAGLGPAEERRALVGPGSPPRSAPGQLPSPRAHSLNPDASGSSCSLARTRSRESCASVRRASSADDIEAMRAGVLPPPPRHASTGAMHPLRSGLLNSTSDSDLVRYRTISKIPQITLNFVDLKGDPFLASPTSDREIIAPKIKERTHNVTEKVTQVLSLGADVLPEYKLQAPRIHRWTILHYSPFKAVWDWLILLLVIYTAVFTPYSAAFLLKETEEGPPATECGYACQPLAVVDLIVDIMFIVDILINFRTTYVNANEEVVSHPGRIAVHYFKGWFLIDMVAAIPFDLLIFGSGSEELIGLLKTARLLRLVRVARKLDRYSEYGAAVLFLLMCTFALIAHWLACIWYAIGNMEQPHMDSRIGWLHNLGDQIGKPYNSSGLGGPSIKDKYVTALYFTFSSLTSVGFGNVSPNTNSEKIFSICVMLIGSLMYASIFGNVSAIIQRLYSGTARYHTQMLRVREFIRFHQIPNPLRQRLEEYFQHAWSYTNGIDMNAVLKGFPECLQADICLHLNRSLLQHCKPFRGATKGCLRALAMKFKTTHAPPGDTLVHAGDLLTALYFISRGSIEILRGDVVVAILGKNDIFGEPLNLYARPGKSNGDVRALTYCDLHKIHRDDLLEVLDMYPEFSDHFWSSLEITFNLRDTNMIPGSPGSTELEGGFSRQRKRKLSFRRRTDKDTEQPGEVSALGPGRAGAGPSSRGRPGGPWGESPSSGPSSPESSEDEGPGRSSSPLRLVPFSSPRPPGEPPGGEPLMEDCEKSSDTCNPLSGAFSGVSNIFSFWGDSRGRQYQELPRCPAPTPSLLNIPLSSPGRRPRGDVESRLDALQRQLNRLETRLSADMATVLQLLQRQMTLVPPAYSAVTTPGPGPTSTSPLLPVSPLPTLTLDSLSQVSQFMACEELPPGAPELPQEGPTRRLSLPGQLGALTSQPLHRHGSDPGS
Sequence of P-glycoprotein (P-gp) (P08183 whole entry): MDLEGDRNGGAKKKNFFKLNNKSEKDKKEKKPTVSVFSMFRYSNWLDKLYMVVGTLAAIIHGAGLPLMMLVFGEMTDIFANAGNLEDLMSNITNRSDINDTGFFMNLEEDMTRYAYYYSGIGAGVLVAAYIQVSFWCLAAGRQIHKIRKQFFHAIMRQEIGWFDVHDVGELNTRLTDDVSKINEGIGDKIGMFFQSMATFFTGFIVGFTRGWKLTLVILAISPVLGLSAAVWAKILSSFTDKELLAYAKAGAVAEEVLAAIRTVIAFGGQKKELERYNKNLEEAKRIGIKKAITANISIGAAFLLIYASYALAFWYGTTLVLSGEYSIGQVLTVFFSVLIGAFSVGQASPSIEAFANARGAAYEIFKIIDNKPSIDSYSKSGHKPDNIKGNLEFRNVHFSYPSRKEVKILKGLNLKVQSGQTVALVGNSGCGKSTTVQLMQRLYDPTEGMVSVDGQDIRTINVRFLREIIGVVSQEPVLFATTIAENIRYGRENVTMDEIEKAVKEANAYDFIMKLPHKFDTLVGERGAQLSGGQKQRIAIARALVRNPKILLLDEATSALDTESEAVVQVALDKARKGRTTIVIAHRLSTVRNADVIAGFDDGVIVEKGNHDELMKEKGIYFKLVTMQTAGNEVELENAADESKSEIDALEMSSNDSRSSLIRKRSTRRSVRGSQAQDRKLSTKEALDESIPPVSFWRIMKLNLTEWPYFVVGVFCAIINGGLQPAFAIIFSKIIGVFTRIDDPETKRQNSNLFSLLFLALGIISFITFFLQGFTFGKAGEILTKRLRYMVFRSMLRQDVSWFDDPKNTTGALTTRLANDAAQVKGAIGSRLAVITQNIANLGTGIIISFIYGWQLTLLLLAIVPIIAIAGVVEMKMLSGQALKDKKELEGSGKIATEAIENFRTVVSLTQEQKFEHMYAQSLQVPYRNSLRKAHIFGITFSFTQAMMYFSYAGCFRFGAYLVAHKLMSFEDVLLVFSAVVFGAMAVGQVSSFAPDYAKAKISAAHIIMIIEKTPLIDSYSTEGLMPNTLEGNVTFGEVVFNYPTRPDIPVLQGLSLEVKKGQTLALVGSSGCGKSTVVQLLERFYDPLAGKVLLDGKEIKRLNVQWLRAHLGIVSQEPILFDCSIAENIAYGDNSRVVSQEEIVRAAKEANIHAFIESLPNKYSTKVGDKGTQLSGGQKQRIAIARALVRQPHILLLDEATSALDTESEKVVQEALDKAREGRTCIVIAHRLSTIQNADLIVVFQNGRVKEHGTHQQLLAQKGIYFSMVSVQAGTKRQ

CCc1ccc([C@@H]2O[C@H](CO)[C@@H](O)[C@H](O)[C@H]2O)cc1Cc1ccc2c(c1)OCCO2 [LIK066, (2S,3R,4R,5S,6R)-2-(3-((2,3-dihydrobenzo[b][1,4]dioxin-6-yl)methyl)-4-ethylphenyl)-6-(hydroxymethyl)tetrahydro-2H-pyran-3,4,5-triol]
pharmacokinetics, tablet vs solution formulations [1]: comparable | inhibition of SGLT1 (SGLT1): potent inhibitor | weight loss ([2]; 150 mg daily dose (qd, b.i.d or tid), obese patients, 12 week treatment): ~6% | weight loss ([2]; 150 mg dose, previous phase 2 study): significant weight loss | dose-limiting toxicity / primary AE ([2]; 150 mg qd, twelve weeks): diarrhea | safety and tolerability ([2]; 150 mg qd, twelve weeks, normoglycemic and dysglycemic subjects / obese patients): generally safe and well tolerated | safety and tolerability ([3]; healthy volunteers and patients with T2DM): safe and tolerated | pharmacokinetic profile ([3]; human, in vivo): favorable | placebo-adjusted weight loss ([3]; over 2 weeks, healthy subjects and patients with T2DM): up to 3% | glucose AUC after an oral glucose tolerance test (OGTT) ([3]; patients with T2DM): significantly lowered | glucosuria ([3]; single and multiple doses, healthy volunteers and patients with T2DM): induced glucosuria | NOAEL ([4]; dog, in vivo, oral, read-out: no observed adverse effect level (NOAEL)): 0.5 mg/kg/day | body weight gain ([4]; dogs, at almost all doses): reduced body weight gain | doses not tolerated ([4]; dogs, prolonged periods (≥6 weeks), body weight loss, fecal changes and dehydration): ≥ 10 mg/kg | principal target organs of toxicity ([4]; oral, dogs, up to 13-weeks): gastrointestinal tract, kidney, urinary tract, bone, liver and adrenal glands | distribution to the central nervous system and reproductive organs [5]: relatively low distribution | selectivity against other glucose transporters (GLUTs) [6]: high selectivity | half-life [7]: 10 to 16 h | inhibitory hERG activity (hERG): no significant inhibitory hERG activity | principal target organs of toxicity ([8]; oral, rats, up to 26-weeks): gastrointestinal tract, kidney, urinary tract, bone, liver and adrenal glands | NOAEL ([8]; rat, in vivo, oral): 5 mg/kg/day | body weight gain ([8]; rats, at almost all doses): reduced body weight gain | potential to act as a perpetrator of pharmacokinetic drug interactions [9]: low potential | inhibition of SGLT2 (SGLT2): potent inhibitor | permeability (Permeability): good permeability | predominant clearance pathway (human hepatocytes): Direct glucuronidation (via the UDP-glucuronosyl transferase (UGT1A9)) | second clearance pathway (followed by) (human hepatocytes): oxidative metabolism (CYP3A4) | solubility (Solubility): good solubility | tolerated dose ([10]; 4 weeks): up to 100 mg/kg | tolerated dose ([10]; 26 weeks): up to 30 mg/kg | estimated ED50 [11, 13]: approximately 5 mg | estimated ED90 [11, 13]: ~50 mg | estimated ED50 [11, 14]: 3 to 10 mg | estimated ED90 [11, 14]: 30 to 100 mg | excretion of [14C] LIK066-related radioactivity [12]: excreted in both urine and feces, mainly as metabolites | P-glycoprotein (P-gp) substrate (P-glycoprotein (P-gp)): is a substrate
